Several values for one entry are separate records, joined by “and”; a condition that tells them apart may be missing. Equal values may be shown once.
Experiments:
[1] = test system: Leishmania donovani; test: Leishmania intramacrophage assay; assay type: functional, organism-based; conditions: for IC50: Leishmania donovani
[2] = test system: Trypanosoma brucei; test: Trypanosoma brucei 72 hour study; assay type: functional, organism-based; conditions: for IC50: Trypanosoma brucei, 72 h
[3] = In vitro enzyme assay to detect hydrolysis of chlorophenol red-beta-D-[…] directly proportional to the number of Toxoplasma stably expressing beta-galactosidase; assay type: functional, organism-based, Toxoplasma gondii; conditions: Toxoplasma gondii
[4] = microbe, parasite or virus in culture; conditions: Mycobacterium tuberculosis, 72 h, read-out: pIC50 (converted)
[5] = microbe, parasite or virus in culture; conditions: Mycobacterium tuberculosis, 96 h, read-out: pIC50 (converted)
[6] = target: ClpP1P2 (Mycobacterium tuberculosis (strain ATCC 25618 / H37Rv), UniProt P9WPC3+P9WPC5); test: in vitro assay to detect presence of AMC directly proportional to the activity of ClpP1P2. GHDDI collaboration.; assay type: functional
ClpP1P2, sequence (P9WPC5 whole entry): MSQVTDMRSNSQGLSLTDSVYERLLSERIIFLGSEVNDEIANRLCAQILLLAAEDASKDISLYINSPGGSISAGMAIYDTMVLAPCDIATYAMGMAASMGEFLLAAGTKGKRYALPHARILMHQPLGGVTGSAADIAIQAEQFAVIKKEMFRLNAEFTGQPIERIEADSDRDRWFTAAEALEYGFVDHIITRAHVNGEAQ
ClpP1P2, sequence (P9WPC3 whole entry): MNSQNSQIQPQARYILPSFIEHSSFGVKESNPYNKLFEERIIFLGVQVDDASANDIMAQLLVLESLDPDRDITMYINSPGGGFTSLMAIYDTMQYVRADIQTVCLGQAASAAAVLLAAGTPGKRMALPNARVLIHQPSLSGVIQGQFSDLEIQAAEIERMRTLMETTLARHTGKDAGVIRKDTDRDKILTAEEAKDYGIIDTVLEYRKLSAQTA

[7] = test system: Plasmodium falciparum; test: Calibr Malaria Delayed Death Assay SOP; assay type: functional, organism-based; conditions: for IC50: Plasmodium falciparum

| Compound | pIC50 [1] | IC50 [1] [µM] | IC50 [2] [µM] | pIC50 [2] | IC50 [3] [µM] | IC50 [4] [µM] | IC50 [5] [µM] | IC50 [6] [µM] | pIC50 [7] | IC50 [7] [µM] |
| --- | --- | --- | --- | --- | --- | --- | --- | --- | --- | --- |
| COCC(C)NCc1nc(-c2ccc(C)cc2)c(-c2ccccn2)[nH]1 (stereo not drawn) | 4.597 | 16 | > 50.1 | – | – | – | – | – | – | – |
| CCNC(=O)[C@@H]1C[C@@H](N)CN1Cc1ccc(Sc2ccc(C)cc2)o1 | 4.875 | 13.8 | 6.83 | 5.166 and 5.161 | – | – | – | – | – | – |
| CC(Nc1ncnc2c1CCNC2)c1ccc(C(C)(C)C)cc1 (stereo not drawn) | 4.856 | 19.6 | 20.6 | 4.656 and 4.706 | – | – | – | – | – | – |
| Cc1nc(C2(O)CCCNCC2)sc1CCOc1ccc(Cl)cc1.Cl (stereo not drawn) | 4.792 | 8.46 | 5.07 | 5.216 and 5.242 | 11 | – | – | – | – | – |
| CCC1CN(C(=O)c2csc3nc(-c4ccc(Cl)cc4)cn23)CCN1 (stereo not drawn) | 4.877 | 12.4 | 7.75 | 5.161 and 5.156 | – | 17.9 | 49.2 | – | – | – |
| Cc1nc2c(c(NCc3cc4ccccc4s3)n1)CCNCC2 | 5.15 | 5.79 | 2.29 | 5.606 and 5.633 | – | > 50.1 | 38 | – | – | – |
| CCOC(=O)N1CC2(CCNCC2)c2cc(Cl)ccc21.Cl | 4.68 | 22.3 | 20.3 | 4.722 and 4.602 | – | – | – | – | – | – |
| COc1ccc(-c2nc(CN3CCCC(OC)C3)c(C)o2)c(F)c1 (stereo not drawn) | 4.638 | 30.9 | 2.36 | 5.649 and 5.647 | – | – | – | – | – | – |
| CCCc1ccc(C(C)Nc2ncnc3c2CCNC3)cc1 (stereo not drawn) | 4.733 | 21.6 | 20.2 | 4.735 and 4.73 | – | – | – | – | – | – |
| CC(Nc1ncnc2c1CCNC2)c1ccc2c(c1)CCCC2 (stereo not drawn) | 4.725 | 25 | 8.18 | 4.894 and 4.867 | – | – | – | – | – | – |
| O=C(c1cc(-c2ccn(CC3CC3)n2)n2ccccc12)N1CCOCC1 | 4.802 | 18.9 | – | 5.586 and 5.592 and 5.253 | – | 27.8 | > 50.1 | > 100 | 5.917 | 1.01 |
| CN1CCN(CC(NCc2cccc(O)c2)c2ccccc2)CC1 (stereo not drawn) | – | 13.7 | 4.3 | 5.312 and 5.375 | – | – | – | – | – | – |
| CN(Cc1cccc(O)c1)CC1CCCN(CCc2ccc(Cl)cc2)C1 (stereo not drawn) | 5.277 and 4.854 | – | 3.82 | 5.504 and 5.492 | – | – | – | – | 6.224 | 0.634 |
| OC(CNc1nc(C2CCCC2)nc2c1CCNCC2)C(F)(F)F (stereo not drawn) | 4.72 and 4.703 | 18.4 | 6.61 | 5.186 and 5.15 | – | – | – | – | – | – |
| Cc1[nH]/c(=N\C(=O)c2csc(NCC(C)C)n2)sc1C | 4.614 | 19.4 | 6.25 | 5.208 and 5.15 | 4.62 | – | – | – | – | – |
| Cc1sc2nc(CCN)nc(N(C)CCCC3CCCO3)c2c1C (stereo not drawn) | – | > 50.1 | 22.5 | 4.729 and 4.748 | – | – | – | – | – | – |
| COCCN(CC1CC1)c1nc(CCN)nc2sc(C)c(C)c12 | – | > 25.1 | 16.2 | 4.814 and 4.866 | – | – | – | – | – | – |
| Cc1[nH]/c(=N\C(=O)c2csc(NC3CC3)n2)sc1C | 4.559 | 47.7 | 13.2 | 5.049 and 4.932 | – | – | – | – | – | – |
| CC(N)C(=O)N1CCC(Oc2cccc(C(F)(F)F)c2)CC1 (stereo not drawn) | 4.638 | 19.3 | 13.2 | 5.074 and 4.999 | – | – | – | – | – | – |
| CN1[C@H]2CC[C@@H]1CN(C(=O)c1ccc(-c3ccccc3)[nH]1)CC2 | 4.659 | 30.6 | 9.62 | 4.853 and 4.971 | – | – | – | – | – | – |
| CCCOc1ccccc1CCCNc1ncnc2oc(C)nc12 | 4.492 and 4.801 | – | 4.09 | 5.583 and 5.61 | – | 25.4 | > 50.1 | – | – | – |
| Clc1cccc(C2CCN(c3ncnc4c3CCNC4)C2)c1 (stereo not drawn) | 4.674 | 23.9 | 19.9 | 4.718 and 4.683 | – | > 50.1 | 29.6 | – | – | – |

— ChEMBL document CHEMBL3988442, “University of Dundee, Small-Polar-MMV Screening Library” (2021)
